For test [1], the system named is L1210. The test can be described thus: Cytotoxicity against mouse L1210 cells. The class given is cell-based.
The subject of test [2] is KB. The test can be described thus: Cytotoxicity against human KB cells. In kind it is cell-based.

≈ marks a conversion by molar mass, not a printed value.

The IC50 is the concentration needed to halve the response being measured. High values mean a need for much substance, low ones inhibition by little substance. As for `Oc1ccc2[nH]cc(-c3cnc(-c4c[nH]c5ccc(O)cc45)nc3)c2c1` [HYRTINADINE A], the results for the IC50 in test [1] and in test [2] were 1 µg/mL (≈ 2.92 µM) and 3 µg/mL (≈ 8.76 µM), respectively.
